Key:
bedstraw = test: Test B pre/postemergence bedstraw; format: in vivo, Galium aparine
How it was run: (§1)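 Herbicidal effect was estimated by eye on a ten-point control scale after plants spent twelve to sixteen days in a greenhouse following soil or foliar treatment. Foliar sprays targeted plants at one to four leaves; all doses were formulated in a non-phytotoxic solvent with surfactant.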

blackgrass = test: Test B pre/postemergence blackgrass; format: in vivo, Alopecurus myosuroides
How it was run: as §1

surinam grass = test: Test B pre/postemergence surinam grass; format: in vivo, Brachiaria decumbens
How it was run: as §1

cocklebur = test: Test B pre/postemergence cocklebur; format: in vivo, Xanthium strumarium
How it was run: as §1

corn = test: Test B pre/postemergence corn; format: in vivo, Zea mays
How it was run: as §1

crabgrass = test: Test B pre/postemergence crabgrass; format: in vivo, Digitaria sanguinalis
How it was run: as §1

giant foxtail = test: Test B pre/postemergence giant foxtail; format: in vivo, Setaria faberii
How it was run: as §1

morningglory = test: Test B pre/postemergence morningglory; format: in vivo, Ipomoea hederacea
How it was run: as §1

pigweed = test: Test B pre/postemergence pigweed; format: in vivo, Amaranthus retroflexus; conditions: for Plant response rating, Redroot pigweed: Postemergence
How it was run: as §1

rape = test: Test B pre/postemergence rape; format: in vivo, Brassica napus
How it was run: as §1

soybean = test: Test B pre/postemergence soybean; format: in vivo, Glycine max; conditions: for Plant response rating, Soybean: Postemergence
How it was run: as §1

sugar beet = test: Test B pre/postemergence sugar beet; format: in vivo, Beta vulgaris
How it was run: as §1

velvetleaf = test: Test B pre/postemergence velvetleaf; format: in vivo, Abutilon theophrasti; conditions: for Plant response rating, Velvetleaf: Postemergence
How it was run: as §1

wheat = test: Test B pre/postemergence wheat; format: in vivo, Triticum aestivum; conditions: for Plant response rating, Wheat: Postemergence
How it was run: as §1

wild oat = test: Test B pre/postemergence wild oat; format: in vivo, Avena fatua; conditions: for Plant response rating, Wild oats: Postemergence
How it was run: as §1

purple nutsedge = test: Test B pre/postemergence purple nutsedge; format: in vivo, Cyperus rotundus
How it was run: as §1

rice = test: Test B flood test rice; format: in vivo, Oryza sativa
How it was run: (§2)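 Read-out is a visual response score from 0 (no effect) to 10 (complete control), assigned by comparison with untreated controls. Treatment was applied at the 2-leaf stage, and plants stayed in the greenhouse for twelve to sixteen days before scoring.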

smallflower flatsedge = test: Test B flood test smallflower flatsedge; format: in vivo, Cyperus difformis
How it was run: as §2

duck salad = test: Test B flood test duck salad; format: in vivo, Heteranthera limosa
How it was run: as §2

bamyardgrass = test: Test B flood test barnyardgrass; format: in vivo, Echinochloa crus-galli
How it was run: as §2

[1] = Postemergence, Rate 125 g/ha, scale 0 to 10, 0 is no effect, 10 is complete control
[2] = Preemergence, Rate 62 g/ha, scale 0 to 10 (0 no effect, 10 complete control)
[3] = Preemergence, Rate 125 g/ha, scale 0 to 10, 0 is no effect, 10 is complete control
[4] = Preemergence, Rate 500 g/ha, scale of 0 to 10 where 0 is no effect and 10 is complete control
[5] = Postemergence, Rate 62 g/ha, scale of 0 to 10, 0 is no effect, 10 is complete control
[6] = Postemergence, Rate 500 g/ha, scale of 0 to 10 where 0 is no effect and 10 is complete control
[7] = Rate 250 g/ha, Postemergence, scale of 0 to 10 where 0 is no effect and 10 is complete control
[8] = Rate 500 g/ha, scale of 0 to 10 where 0 is no effect and 10 is complete control
[9] = Rate 250 g/ha, scale of 0 to 10 where 0 is no effect and 10 is complete control
[10] = Rate 62 g/ha, flood test species, Pre-emergence, visual evaluation after twelve to sixteen days
[11] = Rate 125 g/ha, under heading Pre-emergence, flood test species, visual evaluation after twelve to sixteen days
[12] = Rate 250 g/ha, Pre-emergence (flood test species), scale 0 to 10, 0 is no effect, 10 is complete control
[13] = Rate 500 g/ha, Pre-emergence section of Table B, 0 to 10 scale (0 no effect, 10 complete control)

CC(C)N(C(=O)n1oc(=O)n(C[Si](C)(C)C)c1=O)c1ccccc1 [Compound 577]
3: Blackgrass plant response rating (0 to 10 scale) (blackgrass; Preemergence, Rate 250 g/ha) | Plant response rating, B. signalgrass (surinam grass; [6]) | B. signalgrass plant response rating (surinam grass; [3]) | Corn plant response rating (corn; [4]) | Plant response rating, Crabgrass (crabgrass; [6]) | Plant response rating, Crabgrass (crabgrass; [7]) | Plant response rating, Soybean (soybean; [9]) | Velvetleaf plant response rating (velvetleaf; [3]) | Velvetleaf plant response rating (0 to 10 scale) (velvetleaf; Preemergence, Rate 250 g/ha)
7: B. signalgrass plant response rating (surinam grass; [4]) | Crabgrass plant response rating (crabgrass; [2]) | Giant foxtail plant response rating (giant foxtail; [2])
8: Plant response rating, Giant foxtail (giant foxtail; [6]) | Giant foxtail plant response rating (giant foxtail; [3]) | Morningglory plant response rating (0 to 10 scale) (morningglory; Preemergence, Rate 250 g/ha)
0: Bedstraw plant response rating (bedstraw; [2]) | Bedstraw plant response rating (bedstraw; [3]) | Bedstraw plant response rating (0 to 10 scale) (bedstraw; Preemergence, Rate 250 g/ha) | Bedstraw plant response rating (bedstraw; [4]) | Blackgrass plant response rating (blackgrass; [5]) | Blackgrass plant response rating (blackgrass; [1]) | Plant response rating, Blackgrass (blackgrass; [6]) | Blackgrass plant response rating (blackgrass; [2]) | Blackgrass plant response rating (blackgrass; [3]) | Plant response rating, Blackgrass (blackgrass; [7]) | B. signalgrass plant response rating (surinam grass; [5]) | B. signalgrass plant response rating (surinam grass; [1]) | B. signalgrass plant response rating (surinam grass; [2]) | Plant response rating, B. signalgrass (surinam grass; [7]) | Cocklebur plant response rating (cocklebur; [5]) | Cocklebur plant response rating (cocklebur; [1]) | Cocklebur plant response rating (cocklebur; [2]) | Cocklebur plant response rating (cocklebur; [3]) | Cocklebur plant response rating (0 to 10 scale) (cocklebur; Preemergence, Rate 250 g/ha) | Cocklebur plant response rating (cocklebur; [4]) | Plant response rating, Cocklebur (cocklebur; [7]) | Corn plant response rating (corn; [5]) | Corn plant response rating (corn; [1]) | Plant response rating, Corn (corn; [7]) | Crabgrass plant response rating (crabgrass; [5]) | Crabgrass plant response rating (crabgrass; [1]) | Giant foxtail plant response rating (giant foxtail; [5]) | Morningglory plant response rating (morningglory; [2]) | Morningglory plant response rating (morningglory; [3]) | Plant response rating, Redroot pigweed (pigweed; [8]) | Redroot pigweed plant response rating (pigweed; [2]) | Redroot pigweed plant response rating (pigweed; [3]) | Redroot pigweed plant response rating (0 to 10 scale) (pigweed; Preemergence, Rate 250 g/ha) | Redroot pigweed plant response rating (pigweed; [4]) | Plant response rating, Redroot pigweed (pigweed; [9]) | Rape plant response rating (rape; [5]) | Rape plant response rating (rape; [1]) | Plant response rating, Rape (rape; [6]) | Rape plant response rating (rape; [2]) | Rape plant response rating (rape; [3]) | Rape plant response rating (0 to 10 scale) (rape; Preemergence, Rate 250 g/ha) | Rape plant response rating (rape; [4]) | Plant response rating, Rape (rape; [7]) | Soybean plant response rating (soybean; [2]) | Soybean plant response rating (soybean; [3]) | Soybean plant response rating (0 to 10 scale) (soybean; Preemergence, Rate 250 g/ha) | Soybean plant response rating (soybean; [4]) | Sugarbeets plant response rating (sugar beet; [2]) | Sugarbeets plant response rating (sugar beet; [3]) | Sugarbeets plant response rating (0 to 10 scale) (sugar beet; Preemergence, Rate 250 g/ha) | Sugarbeets plant response rating (sugar beet; [4]) | Plant response rating, Sugarbeets (sugar beet; [7]) | Plant response rating, Velvetleaf (velvetleaf; [8]) | Plant response rating, Velvetleaf (velvetleaf; [9]) | Plant response rating, Wheat (wheat; [8]) | Wheat plant response rating (wheat; [2]) | Wheat plant response rating (wheat; [3]) | Wheat plant response rating (0 to 10 scale) (wheat; Preemergence, Rate 250 g/ha) | Wheat plant response rating (wheat; [4]) | Plant response rating, Wheat (wheat; [9]) | Plant response rating, Wild oats (wild oat; [8]) | Wild oats plant response rating (wild oat; [2]) | Wild oats plant response rating (wild oat; [3]) | Wild oats plant response rating (0 to 10 scale) (wild oat; Preemergence, Rate 250 g/ha) | Wild oats plant response rating (wild oat; [4]) | Plant response rating, Wild oats (wild oat; [9]) | Nutsedge plant response rating (purple nutsedge; [5]) | Plant response rating, Nutsedge (purple nutsedge; [6]) | Nutsedge plant response rating (purple nutsedge; [2]) | Nutsedge plant response rating (purple nutsedge; [3]) | Nutsedge plant response rating (0 to 10 scale) (purple nutsedge; Preemergence, Rate 250 g/ha) | Nutsedge plant response rating (purple nutsedge; [4]) | Plant response rating, Rice (0 to 10 scale, 0 is no effect, 10 is complete control) (rice; [10]) | Rice plant response rating (0 to 10 scale, 0 is no effect, 10 is complete control) (rice; [11]) | Rice plant response rating (rice; [12]) | Rice plant response rating (rice; [13]) | Plant response rating, S. Flatsedge (0 to 10 scale, 0 is no effect, 10 is complete control) (smallflower flatsedge; [10]) | S. Flatsedge plant response rating (0 to 10 scale, 0 is no effect, 10 is complete control) (smallflower flatsedge; [11]) | S. Flatsedge plant response rating (smallflower flatsedge; [12]) | S. Flatsedge plant response rating (smallflower flatsedge; [13]) | Plant response rating, Ducksalad (0 to 10 scale, 0 is no effect, 10 is complete control) (duck salad; [10]) | Ducksalad plant response rating (0 to 10 scale, 0 is no effect, 10 is complete control) (duck salad; [11]) | Ducksalad plant response rating (duck salad; [12]) | Ducksalad plant response rating (duck salad; [13]) | Plant response rating, Barnyardgrass (0 to 10 scale, 0 is no effect, 10 is complete control) (bamyardgrass; [10]) | Barnyardgrass plant response rating (0 to 10 scale, 0 is no effect, 10 is complete control) (bamyardgrass; [11]) | Barnyardgrass plant response rating (bamyardgrass; [12]) | Barnyardgrass plant response rating (bamyardgrass; [13])
6: Blackgrass plant response rating (blackgrass; [4]) | Morningglory plant response rating (morningglory; [5])
9: Crabgrass plant response rating (crabgrass; [3]) | Crabgrass plant response rating (0 to 10 scale) (crabgrass; Preemergence, Rate 250 g/ha) | Giant foxtail plant response rating (0 to 10 scale) (giant foxtail; Preemergence, Rate 250 g/ha) | Morningglory plant response rating (morningglory; [1]) | Morningglory plant response rating (morningglory; [4])
5: Plant response rating, Soybean (soybean; [8])
4: Bedstraw plant response rating (bedstraw; [1]) | B. signalgrass plant response rating (0 to 10 scale, 0 is no effect, 10 is complete control) (surinam grass; Preemergence, Rate 250 g/ha) | Velvetleaf plant response rating (velvetleaf; [2]) | Velvetleaf plant response rating (velvetleaf; [4])
2: Plant response rating, Cocklebur (cocklebur; [6]) | Plant response rating, Corn (corn; [6]) | Corn plant response rating (corn; [2]) | Corn plant response rating (corn; [3]) | Corn plant response rating (0 to 10 scale) (corn; Preemergence, Rate 250 g/ha) | Giant foxtail plant response rating (giant foxtail; [1]) | Plant response rating, Giant foxtail (giant foxtail; [7])
10: Crabgrass plant response rating (crabgrass; [4]) | Giant foxtail plant response rating (giant foxtail; [4]) | Plant response rating, Morningglory (morningglory; [6]) | Plant response rating, Morningglory (morningglory; [7])
